Source: article PMC8277899, “A novel RyR1-selective inhibitor prevents and rescues sudden death in mouse models of malignant hyperthermia and heat stroke” (Nature Communications, 2021)
Where “and” joins values, the source holds several entries; their conditions need not be identical. Identical values can stand only once. Like-named read-outs stand apart in the source and are kept apart here.

Tests used:
[1] = system: FDB muscle cells from R2509C mice; assay: Mn2+ quench of fura-2 fluorescence in isolated FDB cells from R2509C mice; type: cell-based, mouse; conditions: 0.1 μM
Description: WT and mutant mice (R2509C, 8- to 20-week old; R163C, 12- to 16-week old, and G2435R, 12- to 16-week old) were euthanized and flexor digitorum brevis (FDB) muscles were dissected and incubated with 2 mg/mL collagenase (Worthington Biochemical Co., NJ, USA) in the HEPES-Krebs solution containing 2 mg/mL bovine serum albumin for 2–3 h at 37 °C. Following incubation, single cells were separated by gentle trituration in collagenase-free HEPES-Krebs solution. Isolated single FDB cells were seeded on a laminin-coated cover slip of the 35 mm glass-bottom dish or on 96 well plate coated with Cultrex basement membrane matrix (Trevigen, Minneapolis, USA).
Isolated single FDB cells were incubated with 4 µM Cal520-AM (AAT Bioquest, CA, USA) or fura-2-AM (Thermo Fisher Scientific) dye in the HEPES-Krebs solution (140 mM NaCl, 5 mM KCl, 2 mM CaCl2, 1 mM MgCl2, 11 mM glucose, 5 mM HEPES, pH 7.4) for 30 min at 37 °C. The cells were then washed three times with the HEPES-Krebs solution to remove excess dye, and after 30 min of de-esterification, fluorescence images were obtained with a 20X (NA = 0.75) objective lens of an inverted microscope (Nikon TE2000-E Japan) equipped with the sCMOS camera (Zyla, Andor, Belfast, Northern Ireland) using Metamorph v7 (Molecular Devices). Cal520 was excited at 480 ± 15 nm, and fluorescence was measured at wavelengths of 525 ± 25 nm. […]

R2509C mice [2] = type: in vivo, mouse
[3] = Metabolic stability in human liver microsomes; type: in vitro ADME; conditions: 0.5 μM, NADPH
Description: (§1) Cpd1 (final concentration was 0.5 μM) was incubated with human or mouse hepatic microsomes (XenoTech Ltd, Kansas City, KS) with nicotinamide adenine dinucleotide phosphate (NADPH) for 10 and 60 min at 37 °C. Each reaction was stopped by acetonitrile, and the value of unchanged compound 1 was determined by quantitating using LC–MS/MS, and the metabolic stability was evaluated as a remaining rate (%).

[4] = system: soleus muscles from WT mice; assay: Muscle force in vitro, soleus from WT mice (heat contracture, twitch, tetanus); type: cell-based, mouse; set-up: stress (stress-frequency relationship): unit not given beside the values
Description: Muscle contraction measurement was assessed using intact soleus muscle as follows. WT and R2509C mice (8- to 20-week old) were anesthetized with an i.p. injection of sodium pentobarbital (70 mg/kg body weight) and the soleus muscles were dissected. The isolated muscles were mounted between a force transducer (UL-100; Minebea Co., Tokyo, Japan) and a fixed hook in a chamber containing Krebs solution (140 mmol/L NaCl, 5 mmol/L KCl, 2 mmol/L CaCl2, 1 mmol/L MgCl2, 1 mmol/L NaH2PO4, 25 mmol/L NaHCO3, and 11 mmol/L glucose) bubbled with 95% O2 and 5% CO2 at 25 °C. The muscle force was recorded and analyzed by LabChart v6 (AdInstruments, Dunedin, New Zealand). The muscles were stretched to determine the length which produced maximum twitch contraction in response to field stimulation for 1 msec at supramaximal voltage. For caffeine contracture studies, muscles were exposed for 2 min to Krebs solution containing 10, 15, or 20 mM caffeine. For heat-induced contracture studies, muscles were exposed to Krebs solution warmed at 27, 35, 40, and 42 °C until basal force peaked. For twitch and tetanic contraction measurements, muscles were stimulated at 1 min intervals with 20 trains of 1, 2, 5, 10, 20, 50, 100, and 200 Hz pulses. For Cpd1 treatment, muscles were incubated with Krebs solution containing 3 µM Cpd1 15 min prior to measurements. Absolute contractile force was normalized to the maximum diameter of the muscle.

R2509C mice [5] = assay: Muscle force in vivo, grip force test (4-grips test), R2509C mice; set-up: species or system mouse; conditions: for grip force (sheet Fig S6c): single mice
Description: Muscle force was measured in vivo by grip-force test. […] The force was measured before and 10 and 60 min after i.p. injection of saline or Cpd1 (10 mg/kg). Mice (8- to 12-week old) were gently held by the tails and allowed them to grasp the horizontally positioned metal bar of the Grip Strength Meter (MK308M, Muromachi Kikai, Tokyo, Japan) with their forelimbs and hindlimbs (4-grips test). Each mouse performed four trials for force measurement at every time point. The highest force value applied to the metal bar was recorded and normalized by body weight.

WT mice = assay: Muscle force in vivo, grip force test (4-grips test), WT mice; set-up: species or system mouse; conditions: for grip force (sheet Fig S6b): single mice; for grip force normalized by body weight: 8-times injection of 1 mg/kg at 10 min intervals, 1 mg/kg
[6] = Metabolic stability in mouse liver microsomes; type: in vitro ADME; conditions: 0.5 μM, NADPH
Description: as §1

[7] = preventive, 10 mg/kg 10 min before heat stress
[8] = Pre (before administration), Cpd1 group

In the case of `CCCCCCCCn1cc(C(=O)O)c(=O)c2cc3c(cc21)OCO3` [Cpd1, 6,7-(methylenedioxy)-1-octyl-4-quinolone-3-carboxylic acid], the “effect on rate of Mn2+ quench” value [1] was “no effect”, the “effect on rise in rectal temperature” value (R2509C mice [2]; 1 mg/kg i.p. 8 times at 10 min intervals, heat stress) was “successfully prevented rise in the rectal temperature” and the “Survival 90 min after heat stress challenge (survivors/total)” value (R2509C mice [2]; 1 mg/kg i.p. 8 times every 10 min) was “all the mice survived”. The “preventive effect in heat stress experiments” value (R2509C mice [2]; 3 mg/kg, preliminary experiments) was “no effect”, the “effect on rate of temperature rise” value (R2509C mice [2]; preventive, 10 mg/kg) was “slowed the rate of temperature rise” and the “Survival 120 min after heat stress challenge (survivors/total)” value (R2509C mice [2]; [7]) was 0 out of 4 and 0/4. For the same compound, the “Time to death from start of heat stress challenge” value (R2509C mice [2]; [7]) was 115.67 min and 109.33 min and 83.5 min and 85 min, the “Survival 60 min after administration (survivors/total)” value (“Survival 60 min … (survivors/total)” below) (R2509C mice [2]; rescue, 3 mg/kg i.p. at 38 °C) was 5/6 and the “Survival 60 min … (survivors/total)” value (R2509C mice [2]; rescue, 3 mg/kg i.p. at 39 °C, 3 mg/kg) was 3/5 and 3 out of 5. The “Survival 60 min … (survivors/total)” value (R2509C mice [2]; rescue, 10 mg/kg i.p. at 38 °C) was 6/6, the “Survival 60 min … (survivors/total)” value (R2509C mice [2]; rescue, 10 mg/kg i.p. at 39 °C, 10 mg/kg) was 10/11 and 10 out of 11 and the “effect on continued rise in body temperature” value (R2509C mice [2]; rescue, 3 and 10 mg/kg i.p. at 38 °C) was “strongly suppressed”. The “remaining rate (residual Cpd1, 0 min = 100%)” value ([3]; 10 min) was 69% and 68% and 65% and 66%, the “remaining rate (residual Cpd1, 0 min = 100%)” value ([3]; 60 min) was 25% and 26% and 23% and the twitch tension ([4]; 3 μM Cpd1) was 0.08926 and 0.06376 and 0.0706 and 0.1008 and 0.09044. For the same compound, the “stress (stress-frequency relationship)” value ([4]; 3 μM Cpd1, 1 Hz) was 0.07934 and 0.05313 and 0.0706 and 0.09238 and 0.1028, the “stress (stress-frequency relationship)” value ([4]; 3 μM Cpd1, 2 Hz) was 0.07934 and 0.05313 and 0.0706 and 0.09238 and 0.1028 and the “stress (stress-frequency relationship)” value ([4]; 3 μM Cpd1, 10 Hz) was 0.08926 and 0.05313 and 0.0706 and 0.09238 and 0.09866. The “stress (stress-frequency relationship)” value ([4]; 3 μM Cpd1, 50 Hz) was 0.7934 and 0.7651 and 0.5531 and 0.7307 and 0.4851, the “grip force (sheet Fig S6c)” value (R2509C mice [5]; 10 min after Cpd1) was 9.25 and 10 and 6.39 and 8.47 and 6.45 and 7.53 and the “grip force (sheet Fig S6c)” value (R2509C mice [5]; 60 min after Cpd1) was 10.04 and 12.86 and 9.79 and 9.69 and 9.84 and 10.9. For the same compound, the “grip force (sheet Fig S6c)” value (R2509C mice [5]; [8]) was 10.64 and 13.19 and 10.54 and 8.58 and 8.65 and 10.63, the “muscle weakness in grip strength test” value (R2509C mice [5]; R2509C mice, after administration of Cpd1) was “muscle weakness was also observed in 10 min but recovered within 60 min” and the “grip force (sheet Fig S6b)” value (WT mice; 10 min after Cpd1) was 10.7 and 8.11 and 9.35 and 11.39. The “grip force (sheet Fig S6b)” value (WT mice; 60 min after Cpd1) was 11.25 and 11.53 and 12.05 and 13.94, the “grip force (sheet Fig S6b)” value (WT mice; [8]) was 12.3 and 12.63 and 13.75 and 13.44 and the “reduction of muscle strength” value (WT mice; WT mice, 10 min after 10 mg/kg) was 15%. The “recovery of muscle strength deficit” value (WT mice; WT mice, 60 min after 10 mg/kg) was “almost completely recovered”, the “grip force normalized by body weight” value (WT mice; female WT, 10 min) was 6.55 g/g BW and 8.77 g/g BW and 8.32 g/g BW and the “grip force normalized by body weight” value (WT mice; female WT, 30 min) was 6.59 g/g BW and 8.18 g/g BW and 9 g/g BW. The “grip force normalized by body weight” value (WT mice; female WT, 60 min) was 8.64 g/g BW and 8.82 g/g BW and 9.45 g/g BW, the “grip force normalized by body weight” value (WT mice; female WT, 120 min) was 10.05 g/g BW and 9.64 g/g BW and 12.23 g/g BW and the “grip force normalized by body weight” value (WT mice; female WT, Pre) was 9.86 g/g BW and 10.18 g/g BW and 11.36 g/g BW. For the same compound, the “grip force normalized by body weight” value (WT mice; male WT, 10 min) was 6.56 g/g BW and 4.67 g/g BW and 5.04 g/g BW, the “grip force normalized by body weight” value (WT mice; male WT, 30 min) was 7.19 g/g BW and 7.63 g/g BW and 7.37 g/g BW and the “grip force normalized by body weight” value (WT mice; male WT, 60 min) was 8.81 g/g BW and 9.89 g/g BW and 10.81 g/g BW. For the same compound, the “grip force normalized by body weight” value (WT mice; male WT, 120 min) was 9.48 g/g BW and 8.74 g/g BW and 9.44 g/g BW, the “grip force normalized by body weight” value (WT mice; male WT, Pre) was 9.33 g/g BW and 9.22 g/g BW and 8.63 g/g BW and the “remaining rate (residual Cpd1, 0 min = 100%)” value ([6]; 10 min) was 23% and 26% and 28% and 19% and 18%. The “remaining rate (residual Cpd1, 0 min = 100%)” value ([6]; 60 min) was 3% and 2% and 4%.
